The results in this text go back to patent US8796300B2, “Therapeutic compounds” (Rutgers, the State University of New Jersey, priority 2009, dated 2014).

The test system of one series is Salmon Testes Duplex DNA. Briefly: UV melting, thermal stabilization of duplex DNA (Test A). In kind it is binding. Conditions: pH 7.5, 50 mM K+; Tm of the drug-DNA complex minus that of the DNA alone; absorbance at 260 nm. An excerpt:
(§1) Test A. Selective Stabilization of G-Quadruplex DNA Analyses can be performed to determine the ability of the compounds to selectively bind and thermally stabilize quadruplex relative to duplex DNA. Toward this end, the UV absorbances of the DNA molecules are monitored as a function of temperature in the absence and presence of compound. The melting of duplex DNA is generally associated with a hyperchromic shift at 260 nm, while the melting of quadruplex DNA is associated with a hypochromic shift at 295 nm. Thus, the temperature-dependent absorbances of duplex DNA are monitored at 260 nm, with the corresponding quadruplex absorbances being monitored at 295 nm. Salmon testes DNA can be used as a representative model of duplex DNA and d([…])4 can be used as a representative model of quadruplex DNA. All UV melting studies are conducted at physiological pH (7.4) in the presence of potassium ions at physiologically relevant concentrations. Representative compounds of formula I (compounds 6, 32, and 33) were evaluated for their abilities to selectively bind and stabilize G-quadruplex relative to duplex DNA. […] By contrast, none of the compounds exert any impact on the thermal stability of the DNA duplex (ΔTm=0° C. for all three compounds).

Series [1] concerns Human Telomeric G-Quadruplex DNA d(T2AG3)4. The series is described as follows: UV melting, thermal stabilization of G-quadruplex DNA (Test A). The following applies: pH 7.5, 50 mM K+; Tm of the drug-DNA complex minus that of the DNA alone; absorbance at 295 nm. In kind it is binding.
Description: as §1

Series [2] relates to human lymphoblastoma cell line RPMI 8402. Briefly: MTT cytotoxicity assay (Test B). The following applies: RPMI 8402, 96 h, cells cultured 4 days. In kind it is cell-based. An excerpt:
(§2) Test B. Evaluation of G-Quadruplex Stabilizers using the MTT Assay.
(§3) Cell lines are selected based upon one or more factors including data on their relative telomerase activity, varied organ sites, available comparative data, and their ability to form solid tumors in athymic nude mice. The advantage of an MTT assay is that the cytotoxic/cytostatic activities can be readily determined.

The test system of series [3] is KB3-1 human epidermoid carcinoma tumor cells. Briefly: MTT cytotoxicity assay (Test B). In kind it is cell-based. The following applies: KB 3-1, 96 h, cells cultured 4 days.
Description: as §2, §3
For orientation: Tetrazolium assays rely on reduction of a dye to a coloured formazan, in cell work by metabolically active cells.

Consider `O=C1NCc2cccc(c2)CNC(=O)c2coc(n2)-c2coc(n2)-c2cccc(n2)-c2nc(co2)-c2nc1co2` [Compound 6], for which the melting point (commonly the temperature of the solid-liquid transition) was 320 to 324 °C (dec.). For the same compound, in the series on Salmon Testes Duplex DNA, the “Salmon Testes Duplex DNA ΔTm” value is 0 °C. The “Human Telomeric G-Quadruplex DNA ΔTm” value in series [1] came to 20.5 °C. The IC50 (commonly the midpoint of a concentration-inhibition curve) in series [2] came to 1.05 µM. Further, the IC50 in series [3] came out at 1.2 µM.
As for `O=C1NCc2cccc(n2)CNC(=O)c2coc(n2)-c2coc(n2)-c2cccc(n2)-c2nc(co2)-c2nc1co2` [Compound 7], the melting point was 330 °C (dec.). In series [2], the IC50 is more than 5 µM. The compound also had an IC50 in series [3] of more than 5 µM.
For `O=C1NCCNCCNC(=O)c2coc(n2)-c2coc(n2)-c2cccc(n2)-c2nc(co2)-c2nc1co2` [Compound 8], the melting point was 276 °C (dec.). The compound also yielded an IC50 in series [2] of more than 10 µM. In series [3], this compound had an IC50 of 4 µM.
As to `O=C1NCc2cccc(c2)CNC(=O)c2coc(n2)-c2csc(n2)-c2cccc(n2)-c2nc(co2)-c2nc1co2` [Compound 14], the melting point is 274 to 275 °C (dec.). The same compound showed an IC50 in series [2] of 1 µM. This compound also gave a 50% inhibitory concentration (IC50) in series [3] of 0.26 µM.
For `O=C1NCc2cccc(c2)CNC(=O)c2coc(n2)-c2csc(n2)-c2cccc(n2)-c2nc(cs2)-c2nc1co2` [Compound 22] the same measures were 245 °C, more than 10 µM and more than 10 µM.
For `O=C1NCc2cccc(c2)CNC(=O)c2coc(n2)-c2coc(n2)-c2cc(Br)cc(n2)-c2nc(co2)-c2nc1co2` [Compound 28] the same measures were 211 to 213 °C, 0.3 µM and 0.15 µM.
The compound `O=C1NCc2cc(Br)cc(c2)CNC(=O)c2coc(n2)-c2coc(n2)-c2cccc(n2)-c2nc(co2)-c2nc1co2` [Compound 29] gave a melting point of 248 to 250 °C. The same compound displayed an IC50 in series [2] of 0.3 µM. In addition, the half-maximal inhibitory concentration (IC50) in series [3] is 0.06 µM.
As to `O=C(NCCc1cc2cc(c1)CNC(=O)c1coc(n1)-c1coc(n1)-c1cccc(n1)-c1nc(co1)-c1nc(co1)C(=O)NC2)OCc1ccccc1` [Compound 30], the melting point was 196 to 198 °C. In series [2], this compound displayed an IC50 of 0.12 µM. This compound also yielded an IC50 in series [3] of 0.12 µM.
For `O=C1NCc2cc(CCNC(=O)C(F)(F)F)cc(c2)CNC(=O)c2coc(n2)-c2coc(n2)-c2cccc(n2)-c2nc(co2)-c2nc1co2` [Compound 31], the melting point is 290 °C (dec.). The compound further came in with an IC50 in series [2] of 0.17 µM. Further, in series [3], the midpoint of inhibition, the IC50, lay at 0.07 µM.
The like results for `NCCc1cc2cc(c1)CNC(=O)c1coc(n1)-c1coc(n1)-c1cccc(n1)-c1nc(co1)-c1nc(co1)C(=O)NC2` [Compound 32] were, in that order, 277 to 280 °C (dec.), 0.09 µM and 0.03 µM.
For the compound `O=C1NCc2cc(Br)cc(c2)CNC(=O)c2coc(n2)-c2coc(n2)-c2cc(Br)cc(n2)-c2nc(co2)-c2nc1co2` [Compound 34], the melting point is 250 °C (dec.). The same compound showed an IC50 in series [2] of more than 10 µM. The compound further showed an IC50 in series [3] of more than 10 µM.
As to `O=C(NCCc1cc2cc(c1)CNC(=O)c1coc(n1)-c1coc(n1)-c1cc(Br)cc(n1)-c1nc(co1)-c1nc(co1)C(=O)NC2)OCc1ccccc1` [Compound 35], the melting point is 204 to 205 °C. Moreover, the IC50 in series [2] was determined as 1 µM. In addition, the IC50 in series [3] turned out to be 0.6 µM.
For the compound `O=C1NCc2cc(CCNC(=O)C(F)(F)F)cc(c2)CNC(=O)c2coc(n2)-c2coc(n2)-c2cc(Br)cc(n2)-c2nc(co2)-c2nc1co2` [Compound 36], the melting point was 305 to 307 °C (dec.). Moreover, in series [2], the IC50 was more than 10 µM. The IC50 in series [3] is 4 µM.
For `O=C1NCc2cccc(c2)CNC(=O)c2coc(n2)-c2coc(n2)-c2cc(OCCCN3C(=O)c4ccccc4C3=O)cc(n2)-c2nc(co2)-c2nc1co2` [Compound 43] the same measures were 249 to 252 °C (dec.), 4.5 µM and 0.4 µM.
`O=C1NCc2cc(Br)cc(c2)CNC(=O)c2coc(n2)-c2coc(n2)-c2cc(OCCCN3C(=O)c4ccccc4C3=O)cc(n2)-c2nc(co2)-c2nc1co2` [Compound 44]: the melting point is 289 to 290 °C (dec.). The IC50 in series [2] came to 1 µM. The compound also returned an IC50 in series [3] of 1 µM.
On to `O=C(NCCc1cc2cc(c1)CNC(=O)c1coc(n1)-c1coc(n1)-c1cc(OCCCN3C(=O)c4ccccc4C3=O)cc(n1)-c1nc(co1)-c1nc(co1)C(=O)NC2)OCc1ccccc1` [Compound 45], for which the melting point was in the range of 167 to 170 °C. Besides, the IC50 in series [2] was more than 10 µM. In series [3], this compound gave an IC50 of more than 10 µM.
For `NCCCOc1cc2nc(c1)-c1nc(co1)-c1nc(co1)C(=O)NCc1cccc(c1)CNC(=O)c1coc(n1)-c1coc-2n1` [Compound 46], the melting point is 237 to 239 °C (dec.). Besides, it took 5 µM to reach half-maximal inhibition in series [2] (IC50). The compound further gave an IC50 in series [3] of 3 µM.
Turning to `CC(=O)NCCCOc1cc2nc(c1)-c1nc(co1)-c1nc(co1)C(=O)NCc1cccc(c1)CNC(=O)c1coc(n1)-c1coc-2n1` [Compound 47], the results for the IC50 in series [2] and in series [3] were more than 10 µM and 10 µM, respectively.
`CN(C)c1cc2cc(c1)CNC(=O)c1coc(n1)-c1coc(n1)-c1cccc(n1)-c1nc(co1)-c1nc(co1)C(=O)NC2` [Compound 48]: the IC50 was 0.06 µM in series [2] and 0.03 µM in series [3].
For `CC(C)(C)OC(=O)NCCc1cc2cc(c1)CNC(=O)c1coc(n1)-c1coc(n1)-c1cccc(c1)-c1nc(co1)-c1nc(co1)C(=O)NC2` [Compound 59], the IC50 in series [2] stood at 3.6 µM; in series [3], 3.1 µM.
Turning to `CN(C)CCc1cc2cc(c1)CNC(=O)c1coc(n1)-c1coc(n1)-c1cccc(c1)-c1nc(co1)-c1nc(co1)C(=O)NC2` [Compound 61], the IC50 in series [2] came out at 2 µM; in series [3], 0.4 µM.
For `CN(C)CCc1oc2nc1C(=O)NCc1cccc(c1)CNC(=O)c1nc(oc1CCN(C)C)-c1coc(n1)-c1cccc(n1)-c1nc-2co1` [Compound 78] the same measures were 0.2 µM and 0.1 µM.
